Test results reported in US8859545B2, “Tetrahydronaphthyridine and tetrahydropyrido[4,3-D]pyrimidine compounds and compositions thereof useful for the treatment of inflammatory and respiratory diseases” (Evotec AG, priority 2005, dated 2014).
Counter-ions that a name gives are not always drawn.

Test system: P2X2/3 chimera (P2X2/3C)
Experiment: Calcium uptake assay (P2X antagonist assay, agonist-induced calcium influx)
Type: cell-based
Excerpt: Human P2X3 (Accession no. NM_002559), P2X2 (Accession no. NM_170682) and Rat P2X3 (Accession no. NM_031075) and P2X2 (Accession no. NM_053656) are cloned into a mammalian expression vector (e.g., pcDNA5/TO or pcDNA3 Invitrogen). For coexpression of P2X2 and P2X3, the coding regions of both receptors were cloned into a bicistronic vector using methods similar to those described by Kawashima et al., Receptors Channels 5:53-60, 1998. The P2X2/3 chimera clone was created as described by Neelands et al, and then cloned into an expression vector as above. Receptors are expressed in cells (e.g., HEK293 or 1321N1) via transient transfection using standard lipid mediated transfection, or by creation of stable transfectants for each receptor. Cell lines are maintained in DMEM+5% Glutamax, the appropriate level of selective antibiotic, and 10% heat inactivated FBS.
The agonist EC50 is determined at the start of the assay and compound IC50 experiments are run using a set agonist concentration (EC50-90 depending on cell line) as stimulus. The agonists used are αβMeATP, ATP, or other ATP analogs. Compounds may be tested at concentrations ranging from 1 μM to 10 μM. Functional activity of compounds at the P2X receptor is determined by measuring their ability to inhibit agonist-induced calcium influx. Compounds may be tested for antagonist activity against the P2X2/3 chimera, the P2X3 homomer, or the P2X2/3 heteromer. To test for antagonist activity, cells expressing the appropriate receptor are seeded onto 96 or 384 well plates 18-24 hours prior to assay. On the day of the assay, cells are loaded with calcium-sensitive fluorescent dye (e.g., Fluo-4 no wash reagent-Invitrogen cat# F36206, or the BD™ PBX Calcium Assay Kit-BD cat#640175) in Hank's Buffered Salt Solution (HBSS) with up to 10 mM supplemental CaCl2. Plates are incubated at 37° C. and then equilibrated at room temperature. Antagonism of agonist-induced calcium influx is measured using a fluorescent imaging plate reader. The assay comprises two stages: a pre-treatment phase followed by a treatment phase. Compounds may be tested as follows: For the pre-treatment phase, 50 μL of 3× concentration of test compound in HBSS is added to cells containing 100 μL of dye loading media to achieve a final concentration of 1×. For the treatment phase, at a set interval after pre-treatment, 50 μL of 1× test compound plus 4× agonist solution is added to cells. Fluorescence is measured at 0.1-3 second intervals with an excitation wavelength of 494 nm and an emission wavelength of 515 nm. Responses are measured as peak fluorescence after compound-agonist addition minus baseline fluorescence prior to treatment. Percent inhibition is calculated as follows: […]
A calcium uptake assay was performed as described in paragraphs […] above.

[1] = at 3 μM (symbol before the slash)
[2] = at 10 μM (symbol after the slash)

Row | Compound | Ca Influx P2X2/3C % Inhibition at 3 μM/10 μM [1] | Ca Influx P2X2/3C % Inhibition at 3 μM/10 μM [2]
1 | COc1ccc(CN(C)c2ncnc3c2CN(c2ccc(C)cn2)CC3)cc1OC [Compound 59] | ++ (compound exhibited 25-50% inhibition at 3 μM) | **** (compound exhibited 25-50% inhibition at 10 μM)
2 | Cc1ccc(N2CCc3ncnc(NCc4ccccc4OC(F)F)c3C2)nc1 [Compound 52] | ++++/ ^ (compound exhibited 75% or greater inhibition at 3 μM) | –
3 | Cc1ccc(CCNc2ncnc3c2CN(c2ccc(C)cn2)CC3)cc1 [Compound 49] | ++++/ ^ (compound exhibited 75% or greater inhibition at 3 μM) | –
4 | Cc1ccc(N2CCc3ncnc(NCc4ccc(C(C)C)cc4)c3C2)nc1 [Compound 58] | +/ (compound exhibited 0-25% inhibition at 3 μM) | –
5 | Cc1ccc(N2CCc3ncnc(NCc4ccccc4Cl)c3C2)nc1 [Compound 30] | ++++/ ^ (compound exhibited 75% or greater inhibition at 3 μM) | –
6 | Cc1ccc(N2CCc3ncnc(NCCc4ccccc4Cl)c3C2)nc1 [Compound 32] | ++++ (compound exhibited 75% or greater inhibition at 3 μM) | **** (compound exhibited 25-50% inhibition at 10 μM)
7 | CC(C)(C)c1ccc(Nc2ncnc3c2CN(c2ncccc2Cl)CC3)cn1 [Compound 17, (6-tert-Butyl-pyridin-3-yl)-[6-(3-chloro-pyridin-2-yl)-5,6,7,8-tetrahydro-pyrido[4,3-d]pyrimidin-4-yl]-amine] | – | /* (compound exhibited 0-25% inhibition at 10 μM)
8 | Cc1ccc(N2CCc3ncnc(NCC4(O)CCCC(C)(C)C4)c3C2)nc1 (stereo not shown) [Compound 18, 3,3-Dimethyl-1-{[6-(5-methyl-pyridin-2-yl)-5,6,7,8-tetrahydro-pyrido[4,3-d]pyrimidin-4-ylamino]-methyl}-cyclohexanol] | – | /* (compound exhibited 0-25% inhibition at 10 μM)
9 | Cc1ccc(N2CCc3ncnc(NCc4ccc5c(c4)OCO5)c3C2)nc1 [Compound 37] | ++++/ ^ (compound exhibited 75% or greater inhibition at 3 μM) | –
10 | O=S(=O)(c1ccc(Nc2ncnc3c2CN(c2ncccc2Cl)CC3)cc1)C(F)(F)F [Compound 6, 6-(3-Chloropyridin-2-yl)-5,6,7,8-tetrahydro-N-(4-(trifluoromethylsulfonyl)phenyl)pyrido[4,3-d]pyrimidin-4-amine] | +/ (compound exhibited 0-25% inhibition at 3 μM) | –
11 | Cc1ccc(N2CCc3ncnc(NCc4ccc(Cl)cc4F)c3C2)nc1 [Compound 83] | +++/ ^ (compound exhibited 50-75% inhibition at 3 μM) | –
12 | Cc1ccc(N2CCc3ncnc(NCc4ccc(Cl)cc4)c3C2)nc1 [Compound 25] | ++++/ ^ (compound exhibited 75% or greater inhibition at 3 μM) | –
13 | Cc1ccc(N2CCc3ncnc(NCc4cc(C(F)(F)F)cc(C(F)(F)F)c4)c3C2)nc1 [Compound 125] | +/ (compound exhibited 0-25% inhibition at 3 μM) | –
14 | Cc1ccc(N2CCc3ncnc(NCc4ccc(F)c(F)c4)c3C2)nc1 [Compound 73] | ++++/ ^ (compound exhibited 75% or greater inhibition at 3 μM) | –
15 | Clc1cccnc1N1CCc2ncnc(Nc3ccccc3)c2C1 [Compound 2, 6-(3-Chloropyridin-2-yl)-5,6,7,8-tetrahydro-N-phenylpyrido[4,3-d]pyrimidin-4-amine] | +/ (compound exhibited 0-25% inhibition at 3 μM) | –
16 | Cc1ccc(N2CCc3ncnc(NCc4ccc(Cl)cc4Cl)c3C2)nc1 [Compound 78] | +/ (compound exhibited 0-25% inhibition at 3 μM) | –
17 | Cc1ccc(N2CCc3ncnc(NCc4ccc(C(C)(C)C)cc4)c3C2)nc1 [Compound 44] | +/ (compound exhibited 0-25% inhibition at 3 μM) | –
18 | CC1(C)CNc2cc(Nc3ncnc4c3CN(c3ncccc3Cl)CC4)ccc21 [Compound 15, [6-(3-Chloro-pyridin-2-yl)-5,6,7,8-tetrahydro-pyrido[4,3-d]pyrimidin-4-yl]-(3,3-dimethyl-2,3-dihydro-1H-indol-6-yl)-amine HCl salt] | – | /* (compound exhibited 0-25% inhibition at 10 μM)
19 | Cc1ccc(N2CCc3ncnc(NCc4ccc(Cl)c(Cl)c4)c3C2)nc1 [Compound 85] | +/ (compound exhibited 0-25% inhibition at 3 μM) | –
20 | Cc1ccc(N2CCc3ncnc(N(C)Cc4cccc(Cl)c4)c3C2)nc1 [Compound 66] | +/ (compound exhibited 0-25% inhibition at 3 μM) | –

Row | Compound | Ca Influx P2X2/3C % Inhibition at 3 μM/10 μM [1] | Ca Influx P2X2/3C % Inhibition at 3 μM/10 μM [2]
21 | Cc1ccc(N2CCc3ncnc(NCc4cc(Cl)ccc4F)c3C2)nc1 [Compound 111] | +++/ ^ (compound exhibited 50-75% inhibition at 3 μM) | –
22 | Cc1ccc(N2CCc3ncnc(NCc4cc(Cl)cc(Cl)c4)c3C2)nc1 [Compound 115] | +/ (compound exhibited 0-25% inhibition at 3 μM) | –
23 | Cc1ccc(N2CCc3ncnc(NCc4ccc(F)c(C(F)(F)F)c4)c3C2)nc1 [Compound 76] | +/ (compound exhibited 0-25% inhibition at 3 μM) | –
24 | COc1cc(CNc2ncnc3c2CN(c2ccc(C)cn2)CC3)cc(OC)c1 [Compound 87] | +/ (compound exhibited 0-25% inhibition at 3 μM) | –
25 | COc1cc(CCNc2ncnc3c2CN(c2ccc(C)cn2)CC3)cc(OC)c1 [Compound 51] | +++/ ^ (compound exhibited 50-75% inhibition at 3 μM) | –
26 | COc1ccccc1CN(C)c1ncnc2c1CN(c1ccc(C)cn1)CC2 [Compound 63] | +/ (compound exhibited 0-25% inhibition at 3 μM) | –
27 | Cc1ccc(N2CCc3ncnc(NCc4ccc(C(F)(F)F)cc4F)c3C2)nc1 [Compound 121] | ++++/ ^ (compound exhibited 75% or greater inhibition at 3 μM) | –
28 | Cc1ccc(CN(C)c2ncnc3c2CN(c2ccc(C)cn2)CC3)cc1 [Compound 70] | ++/ (compound exhibited 25-50% inhibition at 3 μM) | –
29 | Cc1ccc(N2CCc3ncnc(Nc4ccc(C(F)(F)F)cc4)c3C2)cc1 [Compound 12, N-(4-(Trifluoromethyl)phenyl)-5,6,7,8-tetrahydro-6-p-tolylpyrido[4,3-d]pyrimidin-4-amine] | – | /* (compound exhibited 0-25% inhibition at 10 μM)
30 | Cc1ccc(N2CCc3ncnc(NCc4cc(C(F)(F)F)ccc4Cl)c3C2)nc1 [Compound 89] | + (compound exhibited 0-25% inhibition at 3 μM) | * (compound exhibited 0-25% inhibition at 10 μM)
31 | Cc1ccc(CNc2ncnc3c2CN(c2ccc(C)cn2)CC3)cc1 [Compound 56] | ++++/ ^ (compound exhibited 75% or greater inhibition at 3 μM) | –
32 | Cc1ccc(N2CCc3ncnc(NCc4cccc(F)c4F)c3C2)nc1 [Compound 77] | ++++/ ^ (compound exhibited 75% or greater inhibition at 3 μM) | –
33 | Cc1ccc(N2CCc3ncnc(N(C)Cc4ccc(C(F)(F)F)cc4)c3C2)nc1 [Compound 69] | +/ (compound exhibited 0-25% inhibition at 3 μM) | –
34 | COc1cccc(CCNc2ncnc3c2CN(c2ccc(C)cn2)CC3)c1 [Compound 46] | ++++/ ^ (compound exhibited 75% or greater inhibition at 3 μM) | –
35 | Cc1ccc(N2CCc3ncnc(NCc4cccc(F)c4)c3C2)nc1 [Compound 57] | ++++/ ^ (compound exhibited 75% or greater inhibition at 3 μM) | –
36 | Cc1ccc(N2CCc3ncnc(NCCc4ccccc4)c3C2)nc1 [Compound 45] | ++++/ ^ (compound exhibited 75% or greater inhibition at 3 μM) | –
37 | Cc1ccc(N2CCc3ncnc(NCc4cc(C(F)(F)F)ccc4F)c3C2)nc1 [Compound 74] | +/ (compound exhibited 0-25% inhibition at 3 μM) | –
38 | COc1ccc(CNc2ncnc3c2CN(c2ccc(C)cn2)CC3)cc1 [Compound 53] | ++++/ ^ (compound exhibited 75% or greater inhibition at 3 μM) | –
39 | Cc1ccc(N2CCc3ncnc(NCc4cccc(C)c4C)c3C2)nc1 [Compound 80] | +/ (compound exhibited 0-25% inhibition at 3 μM) | –
40 | Cc1ccc(N2CCc3ncnc(NC(C)c4ccc(F)cc4)c3C2)nc1 (stereo not shown) [Compound 86] | ++++/ ^ (compound exhibited 75% or greater inhibition at 3 μM) | –
